Tested on: ovarian cancer patients (UAB cohort)
Experiment: Kaplan-Meier recurrence curves, University of Alabama at Birmingham (UAB) ovarian cancer cohort, patients classified by TLE3 antibody staining
Type: in vivo, human
Settings: all patients received paclitaxel, most also platinum chemotherapy (carboplatin or cisplatin)
Description: All patients received paclitaxel. Most patients also received platinum chemotherapy (carboplatin or cisplatin). Recurrence data from TLE3-positive and TLE3-negative patients in this subset were used to generate the top and bottom curves, respectively. As shown in the Figure, antibody binding to the TLE3 marker correlated with prognosis in these treated patients (HR=0.64, p<0.049).
Kaplan-Meier recurrence curves that were generated using patients in the RP breast cancer cohort that received chemotherapy are consistent with this prediction model (see FIG. 6, HR=0.194, p=0.010). Kaplan-Meier recurrence curves that were generated using patients in the UAB ovarian cancer cohort that received chemotherapy are also consistent with this prediction model (see FIG. 18, HR=0.64, p=0.049).

CC(=O)O[C@H]1C(=O)[C@@]2(C)[C@H]([C@H](OC(=O)c3ccccc3)[C@]3(O)C[C@H](OC(=O)[C@H](O)[C@@H](NC(=O)c4ccccc4)c4ccccc4)C(C)=C1C3(C)C)[C@]1(OC(C)=O)CO[C@@H]1C[C@@H]2O [paclitaxel]
HR (recurrence, TLE3-positive vs TLE3-negative patients): 0.64

Source: patent publication US8785156B2, “TLE3 as a marker for chemotherapy” (Clarient Diagnostic Services, Inc., priority 2007, dated 2014)
